Measurements from article PMC11353420, “Anti-Inflammatory, Cytotoxic, and Genotoxic Effects of Soybean Oligopeptides Conjugated with Mannose” (Foods, 2024).

What was measured:
[1] = SRB cytotoxicity assay, HepG2; format: cell-based, human; details: human, HepG2 cells; HepG2, 48 h, SRB
Source text: (§1) HEK293 (Human embryonic kidney cell line), HepG2 (Human liver carcinoma cell line), LX-2 (Human hepatic stellate cell line), and 3T3-L1 (Murine preadipocyte cell line) cells were obtained from the American Type Culture Collection (ATCC), Bethesda, MD, USA.

[2] = tested on: HepG2 (Human liver carcinoma cell line); test: SRB cytotoxicity assay, HepG2; format: cell-based
Source text: as §1

[3] = SRB cytotoxicity assay, 3T3-L1 pre-adipocyte; format: cell-based, murine; details: mouse, 3T3-L1 pre-adipocytes; 3T3-L1 Pre-adipocyte, 48 h, SRB
Source text: as §1

3T3-L1 Pre-adipocyte = test: SRB cytotoxicity assay, 3T3-L1 pre-adipocyte; format: cell-based, murine; details: 48 h
Source text: as §1

[4] = SRB cytotoxicity assay, 3T3-L1 mature adipocytes; format: cell-based, murine; details: mouse; 3T3-L1 Mature-adipocytes, 48 h, SRB
Protocol: (§2) The pre-adipocyte 3T3-L1 cell line was differentiated to become mature adipocytes by culturing the cells to 100% confluence in 10% calf serum DMEM (CS medium), as Day 0 in a 96 well-plate. After post-confluence, the cells were incubated with the induction medium as a differentiation initiation medium (DMEM […] 1 μM DEX, 0.5 mM IBMX, 167 nM insulin, and 10% FBS) for 3 days (Days 1–3). After that, cells were cultured in a differentiation medium as an adipogenic differentiation medium (differentiation media: DMEM containing 167 nM insulin and 10% FBS) for 3 days (Days 4–6). Finally, maturation was induced in an induced-lipid accumulation medium (maturation media: DMEM containing 167 nM insulin and 10% FBS) for 6 days (Days 7–12). The mature adipocytes were then used for toxicity testing.
(§3) The cytotoxicity of the oligopeptide and its conjugated forms on HepG2, HEK293, LX-2, and RAW 264.7 cells, pre- and mature 3T3-L1 adipocytes, and hPBMCs was analyzed by a sulforhodamine (SRB) assay to obtain their non-toxic concentration for further experiments and as screening data for their in vitro safety. The cells were plated for 12 h in 96-well plates and then treated with the oligopeptide and its conjugated sugar at a concentration of 0–1000 µg/mL for 48 h. Dimethyl sulfoxide (DMSO) was used as a vehicle control (the untreated control). At the indicated time, the cells were then fixed and subjected to an SRB assay. The absorbance was measured at 510 nm by spectrophotometry (Gen5, BioTek, Winooski, VT, USA), and the cell viability was calculated as the ratio of the treatment versus untreated control. The data are represented as the mean ± standard deviation of three replicates and are expressed relative to the untreated control. The percentage of cell survival was calculated as follows:% cell survival = (Abs_extract/Abs_control) × 100

3T3-L1 Mature-adipocytes = test: SRB cytotoxicity assay, 3T3-L1 mature adipocytes; format: cell-based, murine; details: 48 h
Protocol: as §2, §3

[5] = SRB cytotoxicity assay, PBMCs; format: cell-based, human; details: human, peripheral blood mononuclear cells (PBMCs); PBMCs, 800 µg/mL; read-out: % Cell Viability (n = 5)
Source text: (§4) As described by […] et al., human peripheral blood mononuclear cells (PBMCs) and red blood cells (RBCs) were isolated from human blood samples [41]. Human blood samples of healthy subjects obtained from Maharaj Hospital, Chiang Mai, Thailand, were anonymized and kept in a heparinized tube by the laboratory. RBCs were collected and used to determined hemolysis induction by a hemolysis assay. Ficoll-Hypaque solution was used to isolate PBMCs, as described in the manufacturer's instructions. A certificate of exemption by the Research Ethics Committee of the Faculty of Medicine, Chiang Mai University (No. EXEMPTION 8989/2022), was granted. Consent to participate was not applicable as all data were anonymized. All methods were carried out in accordance with relevant guidelines and regulations.

[6] = tested on: human peripheral blood mononuclear cells (PBMCs); test: SRB cytotoxicity assay, PBMCs; format: cell-based; details: up to 800 µg/mL
Source text: as §4

Hemolysis assay = format: cell-based, human; details: human, 5% red blood cell suspension; 800 µg/mL, 5% RBCs, 37 °C, 3 h; read-out: % Hemolysis (n = 5)
Source text: As described by Karinchai et al., human peripheral blood mononuclear cells (PBMCs) and red blood cells (RBCs) were isolated from human blood samples [41]. Human blood samples of healthy subjects obtained from Maharaj Hospital, Chiang Mai, Thailand, were anonymized and kept in a heparinized tube by the laboratory. RBCs were collected and used to determined hemolysis induction by a hemolysis assay. Ficoll-Hypaque solution was used to isolate PBMCs, as described in the manufacturer’s instructions. A certificate of exemption by the Research Ethics Committee of the Faculty of Medicine, Chiang Mai University (No. EXEMPTION 8989/2022), was granted. Consent to participate was not applicable as all data were anonymized. All methods were carried out in accordance with relevant guidelines and regulations.
The hemolytic effect of the oligopeptide and its conjugated forms was determined by hemolysis assay. Briefly, the 5% RBCs suspension was mixed with various concentrations of the samples and further incubated at 37 °C for 3 h. The hemolysis induction by the compounds was measured as described previously. The hemolytic effect of each compound was interpreted using the following guidelines: 0–10% hemolysis is non-hemolysis, 10–25% hemolysis is slight hemolysis induction, and >25% hemolysis is high hemolysis induction.

iNOS = iNOS protein level by immunoblotting in LPS-treated RAW 264.7; format: cell-based, murine; details: 100, 200, 400 µg/mL, LPS 1 µg/mL 24 h
Protocol: RAW 264.7 macrophage cells were pretreated with various concentrations of the oligopeptide and its conjugated forms (100, 200, 400 µg/mL) for an hour and then incubated with LPS (1 µg/mL) for a further 24 h (at 37 °C in a 5% CO2 humidified atmosphere). The cells were then collected to investigate the iNOS and COX-2 protein levels. Cell lysate was prepared to obtain the protein samples. The samples were subjected to 10% sodium dodecyl sulfate polyacrylamide gel electrophoresis (SDS-PAGE). The separated proteins were electrically transferred to a nitrocellulose membrane. The target proteins were probed with specific antibodies, including anti-COX-2 antibody (Cell signaling, Danvers, MA, USA), anti-iNOS antibody (Merck, Rahway, NJ, USA), and anti-β-actin antibody (Sigma, St. Louis, MO, USA). Protein detection was performed using a chemiluminescence reagent (Bio-Rad Laboratories, Watford, UK).

Which IC20 at 48 h [1] does the source give for OC[C@H]1OC(O)[C@@H](O)[C@@H](O)[C@@H]1O (stereo partly drawn) [Man, D-mannose] here?
Its IC20 at 48 h is over 1000 µg/mL.

And the toxicity to cells ([2]; HepG2, up to 1000 µg/mL, 48 h)?
Its toxicity to cells is “not toxic”.

And the IC50 ([2]; Homo sapiens, HepG2, 48 h, SRB, read-out: IC50)?
The IC50 was over 1000 µg/mL.

What about the IC20 at 48 h [3] of the same compound?
The IC20 at 48 h was over 1000 µg/mL.

And the IC50 (3T3-L1 Pre-adipocyte; Mus musculus, 3T3-L1 Pre-adipocyte, SRB, read-out: IC50)?
The IC50 was over 1000 µg/mL.

What about the toxicity to cells (3T3-L1 Pre-adipocyte; pre-3T3-L1, up to 1000 µg/mL) of the same compound?
The toxicity to cells was “not toxic”.

And the IC20 at 48 h [4]?
Its IC20 at 48 h is over 1000 µg/mL.

What about the IC50 (3T3-L1 Mature-adipocytes; Mus musculus, 3T3-L1 Mature-adipocytes, SRB, read-out: IC50) of the same compound?
The IC50 was over 1000 µg/mL.

And the toxicity to cells (3T3-L1 Mature-adipocytes; mature-3T3-L1, up to 1000 µg/mL)?
The toxicity to cells was “not toxic”.

What about the viability at 48 h, 800 µg/mL [5] of the same compound?
The viability at 48 h, 800 µg/mL was 106 ± 13.3%.

What about the “toxic effects to hPBMCs” value [6] of the same compound?
The value was “did not show any toxic effects”.

What about the hemolysis at 3 h, 800 µg/mL (Hemolysis assay) of the same compound?
Its hemolysis at 3 h, 800 µg/mL is 1.84 ± 0.42%.

What about the “effect on iNOS protein level” value (iNOS) of the same compound?
Its value is “did not affect”.
